Laboratory results published in article PMC7570910, “8-Hydroxyquinoline Glycoconjugates Containing Sulfur at the Sugar Anomeric Position—Synthesis and Preliminary Evaluation of Their Cytotoxicity” (Molecules, 2020).

Key:
Format in all cases: cell-based
HCT-116 cells = test: MTT cytotoxicity assay, HCT-116; conditions: Homo sapiens, incubation time 24 h, mean ± SD (n = 3)
MCF-7 cells = test: MTT cytotoxicity assay, MCF-7; conditions: Homo sapiens, MCF7, incubation time 72 h, mean ± SD (n = 3)
Description: (§1) In vitro cytotoxicity studies of the obtained building blocks and glycoconjugates were carried out on cell lines characterized by the high expression of GLUT transporters and the strongly changed glucose metabolism (strong Warburg effect). […] Cytotoxicity was evaluated using the MTT assay.
The human cell line MCF-7 was obtained from collections at the Maria Sklodowska-Curie Memorial Cancer Center and Institute of Oncology, branch in Gliwice, Poland. […] The culture media were purchased from EuroClone and HyClone. Fetal bovine serum (FBS) was delivered by EURx, Poland, and Antibiotic Antimycotic Solution (100×) by Sigma-Aldrich, Germany. The cells were cultured under standard conditions at 37 °C in a humidified atmosphere at 5% CO2.
(§2) The viability of the cells was determined using an MTT (3-[4,5–dimethylthiazol-2-yl]-2,5-diphenyltetrazolium bromide) test (Sigma-Aldrich). Stock solutions of tested compounds were prepared in DMSO and diluted with the appropriate volumes of the growth medium directly before the experiment. […] The cell cultures were incubated for 24 h at 37 °C in a humidified atmosphere of 5% CO2. Then, the culture medium was removed, replaced with the solution of the tested compounds in medium with varying concentrations, and incubated for further 24 h or 72 h. After that, the medium was removed, and the MTT solution (50 µL, 0.5 mg/mL in PBS) was added. After 3 h of incubation, the MTT solution was removed, and the precipitated formazan was dissolved in DMSO. Finally, the absorbance at the 570 nm wavelength was measured spectrophotometrically with the plate reader. The experiment was conducted in at least three independent iterations with four technical repetitions. The IC50 values were calculated using CalcuSyn software (version 2.0, Biosoft, Cambridge, UK).

[1] = test system: Normal Human Dermal Fibroblasts-Neonatal (NHDF-Neo); test: MTT cytotoxicity assay, NHDF-Neo; conditions: incubation time 24 h, mean ± SD (n = 3)
Description: as §1
[…] […] The culture media were purchased from EuroClone and HyClone. Fetal bovine serum (FBS) was delivered by EURx, Poland, and Antibiotic Antimycotic Solution (100×) by Sigma-Aldrich, Germany. The cells were cultured under standard conditions at 37 °C in a humidified atmosphere at 5% CO2.
as §2

CC(=O)OC[C@H]1O[C@@H](Sc2ccc(NC(=O)CN=[N+]=[N-])cn2)[C@H](OC(C)=O)[C@@H](OC(C)=O)[C@H]1OC(C)=O [Compound 34, (5-azidoacetamide-2-pyridyl) 2,3,4,6-tetra-O-acetyl-1-thio-β-D-galactopyranoside]
IC50 (HCT-116 cells): 541.4 ± 3.73 µM
IC50 (MCF-7 cells): 383 ± 4.23 µM

Cc1ccc2cccc(OCCCn3cc(CS[C@@H]4O[C@H](CO)[C@@H](O)[C@H](O)[C@H]4O)nn3)c2n1 [Compound 65]
IC50 (HCT-116 cells): > 800 µM
IC50 (MCF-7 cells): > 800 µM

COc1cccc2c1C(=O)c1c(O)c3c(c(O)c1C2=O)C[C@@](O)(C(=O)CO)C[C@@H]3O[C@H]1C[C@H](N)[C@H](O)[C@H](C)O1 [Doxorubicin, reference compound]
IC50 (HCT-116 cells): 5.59 ± 0.14 µM
IC50 (MCF-7 cells): 0.67 ± 0.01 µM
IC50 [1]: > 20 µM

O=C(Nc1ccc(S[C@@H]2O[C@H](CO)[C@@H](O)[C@H](O)[C@H]2O)nc1)OCc1cn(CCCOc2cccc3cccnc23)nn1 [Compound 72]
IC50 (HCT-116 cells): > 800 µM
IC50 (MCF-7 cells): 739.2 ± 3.79 µM
IC50 [1]: > 800 µM

C#CCOC(=O)Nc1ccc(S[C@@H]2O[C@H](COC(C)=O)[C@@H](OC(C)=O)[C@H](OC(C)=O)[C@H]2OC(C)=O)nc1 [Compound 36, (5-(((prop-2-yn-1-yloxy)carbonyl)amino)-2-pyridyl) 2,3,4,6-tetra-O-acetyl-1-thio-β-D-glucopyranoside]
IC50 (HCT-116 cells): 125 ± 8.98 µM
IC50 (MCF-7 cells): 38.3 ± 2.44 µM
IC50 [1]: 41.7 ± 3.4 µM

Cc1ccc2cccc(OCCCn3cc(CS[C@@H]4O[C@H](CO)[C@H](O)[C@H](O)[C@H]4O)nn3)c2n1 [Compound 66]
IC50 (HCT-116 cells): > 800 µM
IC50 (MCF-7 cells): > 800 µM

CC(=O)OC[C@H]1O[C@@H](SCc2cn(CCCOc3cccc4ccc(C)nc34)nn2)[C@H](OC(C)=O)[C@@H](OC(C)=O)[C@@H]1OC(C)=O [Compound 61]
IC50 (HCT-116 cells): 108 ± 1.62 µM
IC50 (MCF-7 cells): 130.4 ± 0.2 µM
IC50 [1]: 260 ± 7.65 µM

Oc1cccc2cccnc12 [Compound 8HQ, 8-hydroxyquinoline]
IC50 (HCT-116 cells): > 800 µM
IC50 (MCF-7 cells): 0.24 ± 0.01 µM
IC50 [1]: > 800 µM

CC(=O)OC[C@H]1O[C@@H](SCc2cn(CCCOc3cccc4ccc(C)nc34)nn2)[C@H](OC(C)=O)[C@@H](OC(C)=O)[C@H]1OC(C)=O [Compound 62]
IC50 (HCT-116 cells): 324 ± 1.61 µM
IC50 (MCF-7 cells): 244 ± 3.04 µM
IC50 [1]: 667.6 ± 6.43 µM

CC(=O)OC[C@H]1O[C@@H](SCc2cn(CCCOc3cccc4cccnc34)nn2)[C@H](OC(C)=O)[C@@H](OC(C)=O)[C@H]1OC(C)=O [Compound 60]
IC50 (HCT-116 cells): 304.8 ± 1.34 µM
IC50 (MCF-7 cells): 212 ± 3.46 µM
IC50 [1]: 421.2 ± 0.14 µM

C#CCOC(=O)Nc1ccc(S[C@@H]2O[C@H](COC(C)=O)[C@H](OC(C)=O)[C@H](OC(C)=O)[C@H]2OC(C)=O)nc1 [Compound 37]
IC50 (HCT-116 cells): 456.7 ± 3.85 µM
IC50 (MCF-7 cells): 392 ± 5.29 µM

[N-]=[N+]=NCC(=O)Nc1ccc(S[C@@H]2O[C@H](CO)[C@@H](O)[C@H](O)[C@H]2O)nc1 [Compound 35, (5-azidoacetamide-2-pyridyl) 1-thio-β-D-glucopyranoside]
IC50 (HCT-116 cells): > 800 µM
IC50 (MCF-7 cells): > 800 µM

CC(=O)OC[C@H]1O[C@@H](Sc2ccc(NC(=O)CN=[N+]=[N-])cn2)[C@H](OC(C)=O)[C@@H](OC(C)=O)[C@@H]1OC(C)=O [Compound 33, (5-azidoacetamide-2-pyridyl) 2,3,4,6-tetra-O-acetyl-1-thio-β-D-glucopyranoside]
IC50 (HCT-116 cells): 13.39 ± 0.1 µM
IC50 (MCF-7 cells): 6.39 ± 0.07 µM
IC50 [1]: 11.2 ± 0.31 µM

O=C(Cn1cc(COc2cccc3cccnc23)nn1)Nc1ccc(S[C@@H]2O[C@H](CO)[C@@H](O)[C@H](O)[C@H]2O)nc1 [Compound 69]
IC50 (HCT-116 cells): 210.4 ± 0.55 µM
IC50 (MCF-7 cells): 144 ± 2.68 µM
IC50 [1]: 163.81 ± 0.01 µM

Cc1ccc2cccc(O)c2n1 [Compound 2Me8HQ, 8-hydroxyquinaldine, reference compound]
IC50 (HCT-116 cells): > 800 µM

OC[C@H]1O[C@@H](SCc2cn(CCCOc3cccc4cccnc34)nn2)[C@H](O)[C@@H](O)[C@@H]1O [Compound 63]
IC50 (HCT-116 cells): > 800 µM
IC50 (MCF-7 cells): > 800 µM

C#CCOC(=O)Nc1ccc(S[C@@H]2O[C@H](CO)[C@@H](O)[C@H](O)[C@H]2O)nc1 [Compound 38]
IC50 (HCT-116 cells): > 800 µM
IC50 (MCF-7 cells): > 800 µM
